Laboratory results published in patent publication US6040293A, “Clavanins” (priority 1997, dated 2000).
Starred links: 1 amine or outer side, 2 acyl side, 3 side chain; linkers in the order of their positions; H or OH if unused. Non-standard residues stand in square brackets, D forms with d. No end group written: not given here. Tyr(Me) = O-methyl tyrosine, COc1ccc(C[C@H](N[*:1])C(=O)[*:2])cc1

Assays:
Type in all cases: cell-based
[1] = system: Burkaholderia cepacia
Experimental: (§1) In more detail, the filtrates (≈3.5 mg of protein by BCA) were concentrated to 2 ml by vacuum centrifugation in a Speed Vac Concentrator (Savant Instruments, Hicksville, N.Y.). Gel permeation chromatography was performed on a 1.2×65 cm BioGel P-10 gel permeation column with 5% acetic acid. Preparative continuous acid-urea PAGE electrophoresis was performed as described by Harwig, S. S. L. et al., Anal Biochem (1993) 208:382. Active fractions were pooled and purified by RP-HPLC a 4.6×250 mm Vydac C18 column, using various linear gradients of acetonitrile in 0.1% trifluoroacetic acid (TFA) or 0.13% heptafluorobutyric acid (HFBA). Throughout this multistep procedure, fractions were lyophilized, concentrated and tested for antimicrobial activity against Listeria monocytogenes strain EGD by a radial diffusion technique described in Lehrer, R. I. et al., J Immunol Methods (1991) 137:167. In these assays, the underlay gels contained 9 mM sodium phosphate and 1 mM sodium citrate buffer, 0.30 mg/ml of trypticase soy broth powder (BBL, Cockeysville, Md.) and 1% agarose at a final pH of 6.5.
(§2) Clavanin E(2-23) was tested in the standard underlay assay described in Example 1 herein wherein the underlay contained 10 mM sodium phosphate buffer, pH 7.4 and 1:100 trypticase soy broth with and without 200 mM NaCl. The known antimicrobials cecropin A, cecropin B, and cecropin P1 were used as controls.
(§3) The standard underlay assay was again conducted supplying both E(3-23) and PG-1 to the underlay. In these assays, the underlay contained in addition to 1% agarose, 10 mM sodium phosphate buffer, pH 7.4, 1:100 trypticase soy broth and 200 mM NaCl. The underlays contain PG-1 alone, E(3-23) alone, or combinations of E(3-23) and PG-1.

[2] = system: C. albicans; test: minimal bacteriocidal concentrations and activity under various conditions; conditions: pH 5.5
Experimental: (§4) Finally, the activity of Clavanins A and E as well as E(3-23) and E(6-23) was tested against various target organisms at two pHs with and without salt.
(§5) The Tables below show the minimal bacteriocidal concentrations of PG-1, histatin 5, and Clavanin E(3-23) against various organisms under various conditions. E(3-23) was active over a broad pH range and, unlike hisatin 5, it retained activity in the presence of physiological sodium chloride concentrations.
(§6) Low salt conditions (10 mM phosphate)
(§7) High salt conditions (10 mM phosphate+100 mM NaCl)

[3] = system: L. monocytogenes; test: minimal bacteriocidal concentrations under various conditions; conditions: pH 5.5
Experimental: as §5, §6, §7

[4] = system: S. aureus
Experimental: as §1, §2, §3, §4

[5] = system: E. coli; test: minimal bacteriocidal concentrations under various conditions; parameters: unit not given here; conditions: pH 5.5
Experimental: as §5, §6, §7

[6] = system: P. aeruginosa; test: as above; parameters: unit not given here; conditions: pH 5.5
Experimental: as §5, §6, §7

[7] = system: P. aeruginosa; test: standard underlay assay; parameters: dose or concentration left out as unconfirmed; conditions: pH 7.4
Experimental: as §1
[…] The known antimicrobials cecropin A, cecropin B, and cecropin P1 were used as controls.
The standard underlay assay was again conducted supplying both E(3-23) and PG-1 to the underlay. […]

[8] = system: E. faecium; test: radial diffusion assay; conditions: X-intercept of radial diffusion assay, pH 6.5
Experimental: as §1
(§8) In addition to Cecropin P1 and Magainin 1, the activity of Clavanin A(K) was also tested. Clavanin A(K) is identical to Clavanin A except that all of the histidine residues are replaced by lysine. […] The data are provided as minimal bacteriocidal concentrations expressed in μg/ml which are the X-intercepts of radial diffusion assays performed at pH 6.5 in an underlay that contained 10 mM buffer (9:1 citrate:phosphate), 1% agarose and 0.3 mg trypticase soy powder/ml.

[9] = system: E. coli ML-35P; test: radial diffusion assay; conditions: radial diffusion (FIG. 5)
Experimental: as §1, §8

[10] = system: L. monocytogenes EGD; test: radial diffusion assay; conditions: for potency relative to Clavanins A and B: L. monocytogenes Strain EGD, radial diffusion (FIG. 5)
Experimental: as §1, §8
The effect of pH on antimicrobial activity against several organisms was tested in a pH range wherein histidine becomes comparably charged to lysine. FIGS. 6-8 show the results for native or synthetic Clavanin A and synthetic Clavanin A(K) using defensin NP-2 as a control, with respect to L. monocytogenes, E. coli, and C. albicans respectively. The radial diffusion assays were conducted as described in Examples 1 and 3 above.

[11] = system: E. coli, L. monocytogenes, P. aeruginosa, S. areus and C. albicans; test: activity against various target organisms at two pHs with and without salt; conditions: pH 5.5, 200 mM sodium chloride; most organisms (FIG. 13B)
Experimental: as §4

[12] = high salt (10 mM phosphate+100 mM NaCl)

With `CC(C)C[C@H](NC(=O)[C@H](CCCNC(=N)N)NC(=O)CNC(=O)CNC(=O)[C@@H](N)CCCNC(=N)N)C(=O)N[C@H]1CSSC[C@@H](C(=O)N[C@H](C(=O)NCC(=O)N[C@@H](CCCNC(=N)N)C(N)=O)C(C)C)NC(=O)[C@H](C(C)C)NC(=O)[C@@H]2CSSC[C@H](NC(=O)[C@H](Cc3ccc(O)cc3)NC1=O)C(=O)N[C@@H](CCCNC(=N)N)C(=O)N[C@@H](CCCNC(=N)N)C(=O)N[C@@H](CCCNC(=N)N)C(=O)N[C@@H](Cc1ccccc1)C(=O)N2` [PG-1] the “effect of E(3-23) on MBC for PG-1” value ([1]; B. cepacia, pH 7.4, 200 mM NaCl, 1 μg/ml E(3-23) present) was “did not effect MBC”, the minimal bacteriocidal concentration [2, 12] was 0.10 and the minimal bacteriocidal concentration ([2]; low salt (10 mM phosphate)) was 0.06. For the same compound, the minimal bacteriocidal concentration [3, 12] was 0.10, the minimal bacteriocidal concentration ([3]; low salt (10 mM phosphate)) was 0.10 and the “MBC for PG-1 in the presence of E(3-23)” value ([4]; pH 7.4) was 0.07 µg/mL. For the same compound, the “minimum bacterial concentration (MBC), agent alone” value ([4]; pH 7.4) was “approximately 0.9 μg/ml”, the minimal bacteriocidal concentration [5, 12] was 0.04 and the minimal bacteriocidal concentration ([5]; low salt (10 mM phosphate)) was 0.05. It also gave a minimal bacteriocidal concentration [6, 12] of 0.20 and a minimal bacteriocidal concentration ([6]; low salt (10 mM phosphate)) of 0.20.

In the case of “cecropin A (KWKLFKKIEKVGQNIRDGIIKAGPAVAVVGQATQIAK; ends and bridges not checked; UniProt P01507 27-63, looked up) [known antimicrobial used as control]”, the “activity, E(3-23) and cecropins compared” value [7] is reported as “slightly more active than E(3-23)”.

With Cecropin P1 the “activity, E(3-23) and cecropins compared” value [7] was “slightly more active than E(3-23)” and the minimal bacteriocidal concentration [8] was 6.5 µg/mL.

For “AFKLL GRIIH HVGNF VY' GFS HVF* (AFKLLGRIIHHVGNFV[Tyr(Me)]GFSHVF-NH2; also: C-terminal modification (*)) [Clavanin D, Y' is o-methyl tyrosine]”, the “potency relative to Clavanins A and B” value [9] was 3-5 fold and the “potency relative to Clavanins A and B” value [10] was 3-5 fold.

With “KLLGKIIHHVGNFVHGFSHVF-NH2 [Clavanin E(3-23), KLL GKIIH HVGNF VHGFS HVF*]” the “MBC of E(3-23) with PG-1 incorporated” value ([1]; pH 7.4) was 2.5 µg/mL, the “MBC, agent alone” value ([1]; pH 7.4) was 7.5 µg/mL and the “MBC of E(3-23) in the presence of PG-1” value ([4]; pH 7.4) was 2.5 µg/mL. For the same compound, the “minimum bacterial concentration (MBC), agent alone” value ([4]; pH 7.4) was 7.5 µg/mL.

For “LFKLLGKIIHHVGNFVHGFSHVF (LFKLLGKIIHHVGNFVHGFSHVF) [Clavanin E]”, the “effect of salt on activity” value [11] was “better maintained” and the “effect of salt on activity” value ([4]; S. aureus, pH 5.5, 200 mM sodium chloride (FIG. 13B)) was “maintained its activity”.

For defensin NP-2, the “effect of pH of the assay on activity” value ([10]; L. monocytogenes, radial diffusion, pH 5.5, 6.5, 7.5 (FIG. 6)) was “no effect”.

Work on histatin 5 [Hs-5] yielded a minimal bacteriocidal concentration [2, 12] greater than 500, a minimal bacteriocidal concentration ([2]; low salt (10 mM phosphate)) of 7.2 and a minimal bacteriocidal concentration [3, 12] greater than 500. It also gave a minimal bacteriocidal concentration ([3]; low salt (10 mM phosphate)) of 11.8, a minimal bacteriocidal concentration [5, 12] of 60.6 and a minimal bacteriocidal concentration ([5]; low salt (10 mM phosphate)) of 1.1. It also gave a minimal bacteriocidal concentration [6, 12] greater than 500 and a minimal bacteriocidal concentration ([6]; low salt (10 mM phosphate)) of 2.2.

“VFHLL GKIIH HVGNF VY' GFS HVF* [Clavanin C, Y' is o-methyl tyrosine]” was tested, and the “potency relative to Clavanins A and B” value [9] was 3-5 fold and the “potency relative to Clavanins A and B” value [10] was 3-5 fold.
